According to patent US8399482B2, “6-substituted isoquinolines and isoquinolinones” (Sanofi, priority 2008, dated 2013):

Target: T1, human recombinant ROCK II (Homo sapiens, UniProt O75116)
T1 construct: recombinant human ROCK-II residues 11-552; His6 (N); purchased Millipore GmbH, Schwalbach, Germany
Experiment: Determination of Rho kinase inhibition (ROCK II, Caliper peptide phosphorylation assay)
Assay type: biochemical
Settings: respective form (salt or free base) as obtained in the examples, 60 min at 32° C.
Description: To measure Rho-kinase inhibition, IC50 values were determined according to the following protocol:
Active human recombinant ROCK II (N-terminal His6-tagged recombinant human ROCK-II residues 11-552) was purchased from Millipore GmbH, Schwalbach, Germany. The peptide substrate, Fluorescein-[…]-COOH, was obtained from JPT Peptide Technologies, Berlin, Germany. Adenosine-5′-triphosphate (ATP), bovine serum albumine (BSA), dimethylsulphoxide (DMSO), 4-(2-hydroxyethyl)piperazine-1-ethanesulfonic acid (Hepes), Brij-35, dithiothreitol (DTT) and Pluronic F-68 were purchased from Sigma-Aldrich, Munich, Germany. Tris(hydroxymethyl)-aminomethane (Tris), magnesium chloride, NaOH, 1M HCl and EDTA were obtained from Merck Biosciences, Darmstadt, Germany. “Complete” protease inhibitor was from Roche Diagnostics, Mannheim, Germany. Test compounds were diluted to the appropriate concentrations in buffer 1 (25 mM Tris-HCl, pH 7.4, 5 mM MgCl2, 2 mM DTT, 0.02% (w/v) BSA, 0.01% Pluronic F-68 and 3% DMSO). The ROCK II enzyme was diluted to a concentration of 100 ng/mL in buffer 2 (25 mM Tris-HCl, pH 7.4, 5 mM MgCl2, 2 mM DTT and 0.02% (w/v) BSA). The peptide substrate and ATP were diluted to concentrations of 3 μM and 120 μM, respectively, in the buffer 2. Two μl of the compound solution were mixed with 2 μl of the diluted enzyme in a 384-well small volume microtiter plate (Greiner, Bio-One, Frickenhausen, Germany), and the kinase reaction was initiated by addition of 2 μl of the solution containing peptide substrate and ATP. After 60 min incubation at 32° C., the reaction was stopped by addition of 20 μl of a solution containing 100 mM Hepes-NaOH, pH 7.4, 0.015% (v/v) Brij-35, 45 mM EDTA and 0.227% chip coating reagent 1 (Caliper Lifescience Inc, Hopkinton, Mass.). Phosphorylation of the substrate peptide was then detected on a Caliper 3000 instrument essentially as described by Pommereau et al (J. Biomol. Screening 2004, 9(5), 409-416). Separation conditions were as follows: Pressure −1.3 psi, upstream voltage −1562 V, downstream voltage −500 V, sample sip time 200 ms. Positive controls (buffer 1 instead of compound) and negative controls (buffer 1 instead of compound and buffer 2 instead of ROCK II) were run in parallel on each plate.
The following products/compounds were tested in said assay by using the respective form (salt or free base) obtained as in the examples described above and the following activities were measured

T1 sequence (O75116 11-552): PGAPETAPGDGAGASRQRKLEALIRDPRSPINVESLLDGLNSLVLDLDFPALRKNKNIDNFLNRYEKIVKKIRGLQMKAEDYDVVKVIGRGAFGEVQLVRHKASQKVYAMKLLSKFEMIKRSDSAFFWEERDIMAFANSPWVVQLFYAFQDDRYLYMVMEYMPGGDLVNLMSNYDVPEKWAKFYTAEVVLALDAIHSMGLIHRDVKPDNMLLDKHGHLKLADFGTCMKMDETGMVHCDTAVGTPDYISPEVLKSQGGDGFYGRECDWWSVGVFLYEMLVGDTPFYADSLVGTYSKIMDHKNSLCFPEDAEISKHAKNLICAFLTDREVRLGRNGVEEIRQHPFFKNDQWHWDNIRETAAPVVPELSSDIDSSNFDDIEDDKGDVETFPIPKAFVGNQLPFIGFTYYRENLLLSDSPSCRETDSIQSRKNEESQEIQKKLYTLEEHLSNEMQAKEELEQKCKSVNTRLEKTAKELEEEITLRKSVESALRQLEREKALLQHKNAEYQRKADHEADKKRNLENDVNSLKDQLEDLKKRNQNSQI

SMILES | IC50 | pIC50
CCOC1(C(N)CC)CCC(Oc2cc3cc[nH]c(=O)c3cc2Cl)CC1 (mixture of isomers) [Example 60, 6-[4-(1-Amino-propyl)-4-ethoxy-cyclohexyloxy]-7-chloro-2H-isoquinolin-1-one] | 10 to 100 nM | –
CCC(N)[C@]1(C)CC[C@H](Oc2cc3cc[nH]c(=O)c3cc2Cl)CC1 (mixture of isomers) [Example 26, cis-6-[4-(1-Amino-propyl)-4-methyl-cyclohexyloxy]-7-chloro-2H-isoquinolin-1-one] | ≤ 10 nM | –
CCC(N)C1(COC(C)C)CCC(Oc2cc3cc[nH]c(=O)c3cc2Cl)CC1 (single isomer, unassigned) [Example 20, 6-[4-(1-Amino-propyl)-4-isopropoxymethyl-cyclohexyloxy]-7-chloro-2H-isoquinolin-1-one] | 100 to 1000 nM | –
CCC(N)C1(C2CCCC2)CCC(Oc2cc3cc[nH]c(=O)c3cc2Cl)CC1 (single isomer, unassigned) [Example 24, 6-[4-(1-Amino-propyl)-4-cyclopentyl-cyclohexyloxy]-7-chloro-2H-isoquinolin-1-one] | 10 to 100 nM | –
NC(C(F)(F)F)C1(CC2CC2)CCC(Oc2cc3cc[nH]c(=O)c3cc2Cl)CC1 (single isomer, unassigned) [Example 40, 6-[4-(1-Amino-2,2,2-trifluoro-ethyl)-4-cyclo-propylmethyl-cyclohexyloxy]-7-chloro-2H-isoquinolin-1-one] | 100 to 1000 nM | –
CC(C)C1(C(N)c2nccs2)CCC(Oc2cc3cc[nH]c(=O)c3cc2Cl)CC1 (single isomer, unassigned) [Example 46, 6-[4-(Amino-thiazol-2-yl-methyl)-4-isopropyl-cyclohexyl-oxy]-7-chloro-2H-isoquinolin-1-one] | 100 to 1000 nM | –
CCC1(C(N)CCOC)CCC(Oc2cc3cc[nH]c(=O)c3cc2Cl)CC1 (single isomer, unassigned) [Example 98, 6-[4-(1-amino-3-methoxy-propyl)-4-ethyl-cyclohexyloxy]-7-chloro-2H-isoquinolin-1-one] | 10 to 100 nM | –
CCC(N)C1(C(F)(F)F)CCC(Oc2cc3cc[nH]c(=O)c3cc2Cl)CC1 (single isomer, unassigned) [Example 104, 6-[4-(1-Amino-propyl)-4-trifluoromethyl-cyclohexyloxy]-7-chloro-2H-isoquinolin-1-one] | 100 to 1000 nM | –
CCC(N)C1(C2CCOCC2)CCC(Oc2cc3cc[nH]c(=O)c3cc2Cl)CC1 (single isomer, unassigned) [Example 105] | 10 to 100 nM | –
CCCC[C@]1(C(N)CC)CC[C@@H](Oc2cc3c(Cc4ccccc4)c[nH]c(=O)c3cc2Cl)CC1 (stereo partly drawn) [Example 39, cis-6-[4-(1-Amino-propyl)-4-butyl-cyclohexyloxy]-4-benzyl-7-chloro-2H-isoquinolin-1-one] | 100 to 1000 nM | –
NC(c1ccccc1)[C@]1(CC2CC2)CC[C@H](Oc2cc3cc[nH]c(=O)c3cc2Cl)CC1 (stereo partly drawn) [Example 63, cis-6-[4-(Amino-phenyl-methyl)-4-cyclopropylmethyl-cyclohexyloxy]-7-chloro-2H-isoquinolin-1-one] | 100 to 1000 nM | –
CCC(N)[C@]1(CCCC(F)(F)F)CC[C@H](Oc2cc3cc[nH]c(=O)c3cc2Cl)CC1 (stereo partly drawn) [Example 66, cis-6-[4-(1-Amino-propyl)-4-(4,4,4-trifluoro-butyl)-cyclohexyloxy]-7-chloro-2H-isoquinolin-1-one] | ≤ 10 nM | –
CCC(N)[C@]1(CC2CCOCC2)CC[C@H](Oc2cc3cc[nH]c(=O)c3cc2Cl)CC1 (stereo partly drawn) [Example 67, cis-6-[4-(1-Amino-propyl)-4-(tetrahydro-pyran-4-ylmethyl)-cyclohexyloxy]-7-chloro-2H-isoquinolin-1-one] | 10 to 100 nM | –
CC[C@]1(C(C)N)CC[C@@H](Oc2cc3c(Cc4ccccc4)c[nH]c(=O)c3cc2Cl)CC1 (stereo partly drawn) [Example 81, cis-6-[4-(1-Amino-ethyl)-4-ethyl-cyclohexyloxy]-4-benzyl-7-chloro-2H-isoquinolin-1-one] | 100 to 1000 nM | –
CCC(NCC1CC1)[C@]1(CC)CC[C@H](Oc2cc3cc[nH]c(=O)c3cc2Cl)CC1 (stereo partly drawn) [Example 85, cis-7-Chloro-6-{4-[1-(cyclopropylmethyl-amino)-propyl]-4-ethyl-cyclohexyloxy}-2H-isoquinolin-1-one] | 100 to 1000 nM | –
CCC(NCc1ccccc1)C1(CC)CCC(Oc2cc3cc[nH]c(=O)c3cc2Cl)CC1 (stereo not drawn) [Example 86, cis-6-[4-(1-Benzylamino-propyl)-4-ethyl-cyclohexyloxy]-7-chloro-2H-isoquinolin-1-one] | – | +++++ (6.0 ≦ pIC50 < 7.0)
CCC(NCC(C)C)[C@]1(CC)CC[C@H](Oc2cc3cc[nH]c(=O)c3cc2Cl)CC1 (stereo partly drawn) [Example 87, cis-7-Chloro-6-[4-ethyl-4-(1-isobutylamino-propyl)-cyclohexyloxy]-2H-isoquinolin-1-one] | 100 to 1000 nM | –
CCCCNC(CC)[C@]1(CC)CC[C@H](Oc2cc3cc[nH]c(=O)c3cc2Cl)CC1 (stereo partly drawn) [Example 88, cis-6-[4-(1-Butylamino-propyl)-4-ethyl-cyclohexyloxy]-7-chloro-2H-isoquinolin-1-one] | 100 to 1000 nM | –

Next, values leading:

IC50 | pIC50 | SMILES
10 to 100 nM | – | CCC(N)C1(CC(C)C)CCC(Oc2cc3cc[nH]c(=O)c3cc2Cl)CC1 (single isomer, unassigned) [Example 29, 6-[4-(1-Amino-propyl)-4-isobutyl-cyclohexyloxy]-7-chloro-2H-isoquinoIin-1-one]
100 to 1000 nM | – | CCC(N)[C@]1(CC)CC[C@H](Oc2c(F)cc3c(=O)[nH]ccc3c2C)CC1 (stereo partly drawn) [Example 51, cis-6-[4-(1-Amino-propyl)-4-ethyl-cyclohexyloxy]-7-fluoro-5-methyl-2H-isoquinolin-1-one]
100 to 1000 nM | – | CCC(N)[C@]1(CC)CC[C@H](Oc2c(C)cc3cnccc3c2C)CC1 (stereo partly drawn) [Example 53, cis-1-[4-(5,7-Dimethyl-isoquinolin-6-yloxy)-1-ethyl-cyclohexyl]-propylamine]
100 to 1000 nM | – | CCC(N)[C@]1(CC)CC[C@H](Oc2cc3ccncc3cc2C)CC1 (stereo partly drawn) [Example 56, cis-1-[1-Ethyl-4-(7-methyl-isoquinolin-6-yloxy)-cyclohexyl]-propylamine]
100 to 1000 nM | – | CCC(N)[C@]1(CC)CC[C@H](Oc2c(F)cc3cnccc3c2C)CC1 (stereo partly drawn) [Example 57, cis-1-[1-Ethyl-4-(7-fluoro-5-methyl-isoquinolin-6-yloxy)-cyclohexyl]-propylamine]
≤ 10 nM | – | CCOC[C@]1(C(N)CC)CC[C@@H](Oc2cc3cc[nH]c(=O)c3cc2Cl)CC1 (stereo partly drawn) [Example 71, cis-6-[4-(1-Amino-propyl)-4-ethoxymethyl-cyclohexyloxy]-7-chloro-2H-isoquinolin-1-one]
100 to 1000 nM | – | CC[C@]1(C(C)N)CC[C@@H](Oc2c(F)cc3c(=O)[nH]ccc3c2C)CC1 (stereo partly drawn) [Example 79, cis-6-[4-(1-Amino-ethyl)-4-ethyl-cyclohexyloxy]-7-fluoro-5-methyl-2H-isoquinolin-1-one]
100 to 1000 nM | – | CC[C@]1(C(C)N)CC[C@@H](Oc2c(F)cc3cnccc3c2C)CC1 (stereo partly drawn) [Example 80, cis-1-[1-Ethyl-4-(7-fluoro-5-methyl-isoquinolin-6-yloxy)-cyclohexyl]-ethylamine]
100 to 1000 nM | – | CC[C@]1(C(C)N)CC[C@@H](Oc2cc3ccncc3cc2Br)CC1 (stereo partly drawn) [Example 82, cis-1-[4-(7-Bromo-isoquinolin-6-yloxy)-1-ethyl-cyclohexyl]-ethylamine]
100 to 1000 nM | – | CC[C@]1(C(C)N)CC[C@@H](Oc2ccc3cnccc3c2Cl)CC1 (stereo partly drawn) [Example 84, cis-1-[4-(5-Chloro-isoquinolin-6-yloxy)-1-ethyl-cyclohexyl]-ethylamine]
